According to patent US20150105252A1, “SUBSTITUTED PYRAZOLES AS HERBICIDES” (E I DU PONT DE NEMOURS AND COMPANY, priority 2013, published 2015):

What was measured:
dayflower, VA = test: Test F preemergence; type: in vivo, Commelina virginica
Method in brief: (§1)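 Seeds were sown in silt loam and sprayed preemergence with compound in a non-phytotoxic solvent mixture containing surfactant. Postemergence sprays went onto plants 2 to 18 cm tall (1- to 4-leaf stage). After 14 to 21 days in a greenhouse, injury was rated visually against untreated controls, 0 (no effect) to 100 (complete control).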

oat, wild = test: Test D postemergence; type: in vivo, Avena fatua; settings: scale 0 to 100
Method in brief: (§2)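 Visual injury scored 0–100 (0 none, 100 complete control) against controls 14–21 days after treatment in a controlled growth environment. Chemicals were formulated in a non-phytotoxic solvent mixture containing surfactant, applied to silt loam soil preemergence or to 1- to 4-leaf plants postemergence.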

yellow nutsedge = test: Test F preemergence; type: in vivo, Cyperus esculentus
Method in brief: as §1

common waterhemp = test: Test F preemergence; type: in vivo, Amaranthus rudis
Method in brief: as §1

johnsongrass = test: Test F preemergence; type: in vivo, Sorghum halepense
Method in brief: as §1

buckwheat, wild = test: Test D preemergence; type: in vivo, Polygonum convolvulus; settings: scale 0 to 100
Method in brief: as §2

goosegrass = test: Test F preemergence; type: in vivo, Eleusine indica
Method in brief: as §1

southern sandbur = test: Test F preemergence; type: in vivo, Cenchrus echinatus
Method in brief: as §1

barley, winter = test: Test D postemergence; type: in vivo, Hordeum vulgare; settings: scale 0 to 100
Method in brief: as §2

barley, spring = test: Test D postemergence; type: in vivo, Hordeum vulgare; settings: scale 0 to 100
Method in brief: as §2

Surinam grass = test: Test F preemergence; type: in vivo, Brachiaria decumbens
Method in brief: as §1

bromegrass, downy [1] = test: Test D postemergence; type: in vivo, Bromus tectorum; settings: scale 0 to 100
Method in brief: as §2

bromegrass, downy [2] = test: Test D preemergence; type: in vivo, Bromus tectorum; settings: scale 0 to 100
Method in brief: as §2

foxtail, green = test: Test D preemergence; type: in vivo, Setaria viridis; settings: scale 0 to 100
Method in brief: as §2

[3] = Preemergence, 62 g ai/ha, scale 0 to 100
[4] = Preemergence, 125 g ai/ha, scale 0 to 100
[5] = preemergence, 8 g ai/ha, scale 0 to 100, 100 is complete control

CCOc1cc(C(=O)NC(C)C)nn1Cc1ccnc(C(F)(F)F)c1 [Compound 188]
Plant response rating, Dayflower, VA (dayflower, VA; [3]): 90 | Plant response rating, Dayflower, VA (dayflower, VA; [4]): 100 | Plant response rating, Dayflower, VA (dayflower, VA; [5]): 0 | Oat, Wild plant response rating (oat, wild; Postemergence, 31 g ai/ha): 15 | Oat, Wild plant response rating (oat, wild; Postemergence, 125 g ai/ha): 25 | Oat, Wild plant response rating (oat, wild; Postemergence, 250 g ai/ha): 70 | Oat, Wild plant response rating (oat, wild; postemergence, 62 g ai/ha): 15 | Plant response rating, Yellow Nutsedge (yellow nutsedge; [3]): 15 | Plant response rating, Yellow Nutsedge (yellow nutsedge; [4]): 70 | Plant response rating, Yellow Nutsedge (yellow nutsedge; [5]): 0 | Plant response rating, Common Waterhemp (common waterhemp; Preemergence, 16 g ai/ha, scale 0 to 100): 100 | Plant response rating, Common Waterhemp (common waterhemp; [3]): 100 | Plant response rating, Common Waterhemp (common waterhemp; [4]): 100 | Plant response rating, Common Waterhemp (common waterhemp; [5]): 85 | Plant response rating, Johnsongrass (johnsongrass; [3]): 80 | Plant response rating, Johnsongrass (johnsongrass; [4]): 95 | Plant response rating, Johnsongrass (johnsongrass; [5]): 0 | Plant response rating, Buckwheat, Wild (buckwheat, wild; 31 g ai/ha): 100 | Plant response rating, Buckwheat, Wild (buckwheat, wild; 62 g ai/ha): 100 | Plant response rating, Buckwheat, Wild (buckwheat, wild; 125 g ai/ha): 100 | Plant response rating, Buckwheat, Wild (buckwheat, wild; 250 g ai/ha): 100 | Plant response rating, Goosegrass (goosegrass; [3]): 98 | Plant response rating, Goosegrass (goosegrass; [4]): 100 | Plant response rating, Goosegrass (goosegrass; [5]): 5 | Plant response rating, Southern Sandbur (southern sandbur; [3]): 65 | Plant response rating, Southern Sandbur (southern sandbur; [4]): 100 | Plant response rating, Southern Sandbur (southern sandbur; [5]): 0 | Barley, Winter plant response rating (barley, winter; Postemergence, 31 g ai/ha): 15 | Barley, Winter plant response rating (barley, winter; Postemergence, 125 g ai/ha): 40 | Barley, Winter plant response rating (barley, winter; Postemergence, 250 g ai/ha): 65 | Barley, Winter plant response rating (barley, winter; postemergence, 62 g ai/ha): 15 | Barley, Spring plant response rating (barley, spring; Postemergence, 31 g ai/ha): 15 | Barley, Spring plant response rating (barley, spring; Postemergence, 125 g ai/ha): 25 | Barley, Spring plant response rating (barley, spring; Postemergence, 250 g ai/ha): 65 | Barley, Spring plant response rating (barley, spring; postemergence, 62 g ai/ha): 15 | Plant response rating, Surinam Grass (Surinam grass; [3]): 100 | Plant response rating, Surinam Grass (Surinam grass; [4]): 100 | Plant response rating, Surinam Grass (Surinam grass; [5]): 20 | Bromegrass, Downy plant response rating (bromegrass, downy [1]; Postemergence, 31 g ai/ha): 15 | Bromegrass, Downy plant response rating (bromegrass, downy [1]; Postemergence, 125 g ai/ha): 15 | Bromegrass, Downy plant response rating (bromegrass, downy [1]; Postemergence, 250 g ai/ha): 20 | Bromegrass, Downy plant response rating (bromegrass, downy [1]; postemergence, 62 g ai/ha): 15 | Plant response rating, Bromegrass, Downy (bromegrass, downy [2]; 31 g ai/ha): 20 | Plant response rating, Bromegrass, Downy (bromegrass, downy [2]; 62 g ai/ha): 75 | Plant response rating, Bromegrass, Downy (bromegrass, downy [2]; 125 g ai/ha): 85 | Plant response rating, Bromegrass, Downy (bromegrass, downy [2]; 250 g ai/ha): 100 | Plant response rating, Foxtail, Green (foxtail, green; 62 g ai/ha): 100 | Plant response rating, Foxtail, Green (foxtail, green; 125 g ai/ha): 100 | Plant response rating, Foxtail, Green (foxtail, green; 250 g ai/ha): 100
